Experimental data: patent publication US10359430B2, “Selective near-infrared optical imaging of necrotic cells and simultaneous cell fixing and counter staining with metallacrown complexes” (THE REGENTS OF THE UNIVERSITY OF MICHIGAN, priority 2015, dated 2019)
Entries after “also recorded” stand apart in the source; their conditions may differ.

How the values were obtained:
[1] = system: HeLa cells; test: NIR epifluorescence microscopy of HeLa cells treated with N-acetyl cysteine; type: cell-based, Human; conditions: 150 μM complex 15 minutes
Description: Formation of extracellular vesicules is a result of cellular response on oxidative stress which indicates excessive production of ROS (Reactive oxygen species). In order to investigate if ROS are responsible for dual function of Yb^3+[Zn(II)MCpyzHA], HeLa cancer cells were treated with NAC (N-acetyl cysteine), which is a well known antioxidant that efficiently blocks production of reactive oxygen species (ROS).
Cells were seeded in a 8-well Lab Tek Chamber coverglass (Nunc, Dutsher S.A., Brumath, France) at a density of 6×10^4 cells/well and cultured at 37° C. in 5% humidified CO2 atmosphere.
After 24 hours, the cell culture media was removed. Some of the cells were washed twice with OPTI-MEM® media (room temperature), incubated with N-acetyl cysteine (NAC) for 15 minutes, washed twice with OPTI-MEM® media and incubated with 150 μM of Yb^3+[Zn(II)MCpyzHA] for 15 minutes.
After 24 hours, the cell culture media was removed. Some of the cells were washed twice with OPTI-MEM® media (room temperature), and incubated with 150 μM of Yb^3+[Zn(II)MCpyzHA] for 15 minutes. N-acetyl cysteine (NAC) was added, and the cells were incubated for another 30 minutes. The cells were washed twice with OPTI-MEM® media.

[2] = system: MSC (Mesenchymal Stem Cells); conditions: 150 μM, 15 minutes, UV light (377 nm) 8 minutes, further 1 hour
Description: The MSC (Mesenchyml Stem Cells) cell line was obtained from University in Orleans, 13MTO Laboratory (Orleans, France). The as-received MSC cell line has been obtained from the bone marrow of rats. The MSC cell line was cultured in Minimum Essential Medium (MEM) supplemented with 10% heat-inactivated fetal bovine serum (FBS), 1% of L-glutamine (GlutaMAX) and 1% of streptomycin/penicillin antibiotics. The MSC were also seeded in a similar manner to the HeLa cells.
After 24 hours, the respective cell culture media was removed and the HeLa cells or MSC were incubated with the Yb^3+[Zn(II)MCpyzHA] complex according to one of the following procedures.
The MSC cells were incubated with a solution of 150 μM Yb^3+[Zn(II)MCpyzHA] complex in OPTI-MEM® media (supplemented with 2% of FBS at 37° C. in 5% CO2 atmosphere) for 15 minutes, illuminated with UV light (377 nm) for 8 minutes, and then were allowed to continue incubating for 1 hour.
Prior to epifluorescent imaging, the HeLa and the MSC cells were washed twice with OPTI-MEM® (room temperature) in order to remove any non-specifically bound Yb^3+[Zn(II)MCpyzHA] complex.

[3] = Photophysical parameters in OPTI-MEM media, cell supernatant and HeLa cells; type: physicochemical
Description: The Yb^3+[Zn(II)MCpyzHA] complexes were dissolved in OPTI-MEM® medium with 2% SVF (without cells) and were incorporated in HeLa cells, both with and without exposure to UV light. The results in are shown in FIG. 20, (A) (corrected and normalized excitation) and FIG. 20, (B) (corrected and normalized emission). […] The present inventors developed instrumentation in order to collect photophysical properties of MCs inside of cancer cells. They measured quantitative photophysical parameters (quantum yields and life times) inside of the cells with equipment which is usually adapted for measuring of (quantum yields and life times) in solids or in concentrated solutions.
The Yb^3+[Zn(II)MCpyzHA] complexes were collected together with cell supernatant (SN) and with HeLa cells treated with N-acetyl cysteine, both with and without exposure to UV light. For SN1 and cells1, incubation with NAC took place for 30 minutes, then the cells were washed, and incubation with Yb^3+[Zn(II)MCpyzHA] took place for 15 minutes. For SN2 and cells2, incubation with Yb^3+[Zn(II)MCpyzHA] took place for 15 minutes, and then NAC was added and incubation with NAC took place for 30 minutes. The results in are shown in FIGS. 20C (corrected and normalized excitation) and 20D (corrected and normalized emission). […]

[4] = Photophysical properties of the metallacrowns in solid state and in aqueous solutions; type: physicochemical
Description: FIG. 4. illustrates the normalized excitation (λem(Nd^3+)=1070 nm, λem(Yb^3+)=980 nm) and emission (λex=370 nm) spectra of Yb^3+[Zn(II)MCpyzHA], at the top, and Nd^3+[Zn(II)MCpyzHA] MCs, at the bottom, (solid or 200 μM solutions, room temperature).

[5] = Photostability stress tests; type: physicochemical; conditions: 150 μM in water and OPTI-MEM media, 5 hours of irradiation with 377 nm light
Description: Photostability stress tests of Yb^3+[Zn(II)MCpyzHA] (Yb λem=980 nm) and Nd^3+[Zn(II)MCpyzHA] (Nd λem=1064 nm) and the commercially available dye for necrotic cells (Propidium Iodide) were performed. The complexes (150 μM) or dye (50 μM) were dissolved in water and the complexes were also dissolved in OPTI-MEM® media. The MC solutions were exposed to 5 hours of UV radiation (377 nm). The propidium iodide solution was exposed to 5 hours of UV radiation (530 nm).

[6] = No UV NAC (SN1*): cell supernatant, NAC 30 minutes, washed, then complex 15 minutes
[7] = No UV NAC (SN2*): cell supernatant, complex 15 minutes, then NAC 30 minutes
[8] = No UV NAC (in cells1*): NAC 30 minutes, washed, then complex 15 minutes
[9] = No UV NAC (in cells2*): complex 15 minutes, then NAC 30 minutes
[10] = No UV: After 5 h of incubation with HeLa cells without illumination
[11] = UV NAC (SN2*): cell supernatant, complex 15 minutes, then NAC 30 minutes
[12] = UV NAC (in cells2*): complex 15 minutes, then NAC 30 minutes
[13] = UV: After 5 h of incubation with HeLa cells with UV illumination (during 8 min)

O=C([N-][O-])c1cnccn1.O=C([N-][O-])c1cnccn1.O=C([N-][O-])c1cnccn1.O=C([N-][O-])c1cnccn1.O=C([N-][O-])c1cnccn1.O=C([N-][O-])c1cnccn1.O=C([N-][O-])c1cnccn1.O=C([N-][O-])c1cnccn1.O=C([N-][O-])c1cnccn1.O=C([N-][O-])c1cnccn1.O=C([N-][O-])c1cnccn1.O=C([N-][O-])c1cnccn1.O=C([N-][O-])c1cnccn1.O=C([N-][O-])c1cnccn1.O=C([N-][O-])c1cnccn1.O=C([N-][O-])c1cnccn1.O=S(=O)([O-])C(F)(F)F.O=S(=O)([O-])C(F)(F)F.O=S(=O)([O-])C(F)(F)F.[Yb+3].[Zn+2].[Zn+2].[Zn+2].[Zn+2].[Zn+2].[Zn+2].[Zn+2].[Zn+2].[Zn+2].[Zn+2].[Zn+2].[Zn+2].[Zn+2].[Zn+2].[Zn+2].[Zn+2].c1ccncc1.c1ccncc1.c1ccncc1.c1ccncc1.c1ccncc1.c1ccncc1.c1ccncc1.c1ccncc1 [Yb^3+[Zn(II)MCpyzHA]]
Internalization inside the cells, complex Incubation First ([1]; then NAC 30 minutes): do not show internalization | NIR signal in cells, NAC Incubation First ([1]; NAC 15 minutes, wash, exposure time 400 ms): very good signal in NIR | Function in MSC cells [2]: acting as an NIR dye and cell fixative | Quantum yield ([3]; In HeLa cells): 2.14(6) · 10^−2% | τ2 ([3]; In HeLa cells): 23.6(7) μs | τ2 contribution ([3]; In HeLa cells): 100% | Quantum yield [3, 6]: 1.08(1) · 10^−2% | τ1 [3, 6]: 7.27(2) μs | τ1 contribution [3, 6]: 91% | τ2 [3, 6]: 50(2) μs | τ2 contribution [3, 6]: 9% | Quantum yield [3, 7]: 1.00(4) · 10^−2% | τ1 [3, 7]: 6.72(3) μs | τ1 contribution [3, 7]: 88% | τ2 [3, 7]: 28.4(1) μs | τ2 contribution [3, 7]: 12% | τ1 [3, 8]: 7.5(4) μs | τ1 contribution [3, 8]: 6% | τ2 [3, 8]: 22.9(1) μs | τ2 contribution [3, 8]: 94% | τ1 [3, 9]: 7.3(1) μs | τ1 contribution [3, 9]: 7% | τ2 [3, 9]: 23.6(2) μs | τ2 contribution [3, 9]: 93% | Quantum yield [3, 10]: 1.52(3) · 10^−2% | τ1 [3, 10]: 6.47(4) μs | τ1 contribution [3, 10]: 75% | τ2 [3, 10]: 21.6(8) μs | τ2 contribution [3, 10]: 25% | Quantum yield ([3]; OptiMEM): 1.25(1) · 10^−2% | τ1 ([3]; OptiMEM): 6.45(5) μs | τ1 contribution ([3]; OptiMEM): 89% | τ2 ([3]; OptiMEM): 24(1) μs | τ2 contribution ([3]; OptiMEM): 11% | Quantum yield ([3]; OptiMEM-UV 1 h 30 min): 2.05(5) · 10^−2% | τ1 ([3]; OptiMEM-UV 1 h 30 min): 7.03(3) μs | τ1 contribution ([3]; OptiMEM-UV 1 h 30 min): 61% | τ2 ([3]; OptiMEM-UV 1 h 30 min): 21.5(1) μs | τ2 contribution ([3]; OptiMEM-UV 1 h 30 min): 39% | Quantum yield [3, 11]: 1.06(5) · 10^−2% | τ1 [3, 11]: 6.80(9) μs | τ1 contribution [3, 11]: 75% | τ2 [3, 11]: 23(1) μs | τ2 contribution [3, 11]: 25% | τ1 [3, 12]: 8.7(5) μs | τ1 contribution [3, 12]: 9% | τ2 [3, 12]: 23.2(1) μs | τ2 contribution [3, 12]: 91% | Quantum yield [3, 13]: 1.64(5) · 10^−2% | τ1 [3, 13]: 6.51(8) μs | τ1 contribution [3, 13]: 65% | τ2 [3, 13]: 21(1) μs | τ2 contribution [3, 13]: 35% | Contribution of the long lifetime inside of HeLa cells ([3]; all experimental conditions): more than 90% | Integrity of the MC ([3]; cell culture media and cells, different experimental conditions): stays intact in cell culture media and in the cells | Change of luminescent properties in media, cell supernatant or HeLa cells ([3]; with/without exposure to UV light): did not change in the cells; also recorded: did not change in cell supernatant or inside of the HeLa cells | Q (quantum yield), D2O ([4]; 200 μM in D2O, room temperature, excitation at 370 nm): 0.257(3) % | Q (quantum yield), H2O ([4]; 200 μM in H2O, room temperature, excitation at 370 nm): 1.12(7) · 10^−2% | Excitation wavelength limit ([4]; FIG. 4 (Top), excitation spectrum): up to 480 nm | Q (quantum yield), Solid ([4]; solid state, room temperature, excitation at 370 nm): 0.659(4) % | Photostability [5]: fully photostable
